Measurements as given in patent US20060079566A1, “PDK-1/Akt signaling inhibitors” (priority 2003, published 2006).

What was measured:
Type in all cases: cell-based
TK-10 = assay: NCI DTP screen (SRB), Renal Cancer; conditions: Homo sapiens
Method: (§1) Screening of compounds 70 and 71 against several cancer cell lines The human tumor cell lines of the cancer screening panel are grown in RPMI 1640 medium containing 5% fetal bovine serum and 2 mM L-glutamine. For a typical screening experiment, cells are inoculated into 96 well microtiter plates in 100 μL at plating densities ranging from 5,000 to 40,000 cells/well depending on the doubling time of individual cell lines. After cell inoculation, the microtiter plates are incubated at 37° C., 5% CO2, 95% air and 100% relative humidity for 24 h prior to addition of experimental drugs.
(§2) After 24 h, two plates of each cell line are fixed in situ with TCA, to represent a measurement of the cell population for each cell line at the time of drug addition (Tz). Experimental drugs are solubilized in dimethyl sulfoxide at 400-fold the desired final maximum test concentration and stored frozen prior to use. At the time of drug addition, an aliquot of frozen concentrate is thawed and diluted to twice the desired final maximum test concentration with complete medium containing 50 μg/ml gentamicin. Additional four, 10-fold or ½ log serial dilutions are made to provide a total of five drug concentrations plus control. Aliquots of 100 μl of these different drug dilutions are added to the appropriate microtiter wells already containing 100 μl of medium, resulting in the required final drug concentrations.
(§3) Following drug addition, the plates are incubated for an additional 48 h at 37° C., 5% CO2, 95% air, and 100% relative humidity. For adherent cells, the assay is terminated by the addition of cold TCA. Cells are fixed in situ by the gentle addition of 50 μl of cold 50% (w/v) TCA (final concentration, 10% TCA) and incubated for 60 minutes at 4° C. The supernatant is discarded, and the plates are washed five times with tap water and air dried. Sulforhodamine B (SRB) solution (100 μl) at 0.4% (w/v) in 1% acetic acid is added to each well, and plates are incubated for 10 minutes at room temperature. After staining, unbound dye is removed by washing five times with 1% acetic acid and the plates are air dried. Bound stain is subsequently solubilized with 10 mM trizma base, and the absorbance is read on an automated plate reader at a wavelength of 515 nm. For suspension cells, the methodology is the same except that the assay is terminated by fixing settled cells at the bottom of the wells by gently adding 50 μl of 80% TCA (final concentration, 16% TCA). Using the seven absorbance measurements [time zero, (Tz), control growth, (C), and test growth in the presence of drug at the five concentration levels (Ti)], the percentage growth is calculated at each of the drug concentrations levels. Percentage growth inhibition is calculated as: [(Ti−Tz)/(C−Tz)]×100 for concentrations for which Ti>/=Tz [(Ti−Tz)/Tz]×100 for concentrations for which Ti<Tz
(§4) Three dose response parameters are calculated for each experimental agent. […] The drug concentration resulting in total growth inhibition (TGI) is calculated from Ti=Tz. […] Values are calculated for each of these three parameters if the level of activity is reached; however, if the effect is not reached or is exceeded, the value for that parameter is expressed as greater or less than the maximum or minimum concentration tested.

A498 = assay: NCI DTP screen (SRB), Renal Cancer; conditions: Homo sapiens
Method: as §1, §2, §3, §4

786-0 = assay: NCI DTP screen (SRB), Renal Cancer; conditions: Homo sapiens
Method: as §1, §2, §3, §4

SN12C = assay: NCI DTP screen (SRB), Renal Cancer; conditions: Homo sapiens
Method: as §1, §2, §3, §4

CAKI-1 = assay: NCI DTP screen (SRB), Renal Cancer; conditions: Homo sapiens
Method: as §1, §2, §3, §4

ACHN = assay: NCI DTP screen (SRB), Renal Cancer; conditions: Homo sapiens
Method: as §1, §2, §3, §4

NCI-H460 = assay: NCI DTP screen (SRB), Non-Small Cell Lung Cancer
Method: as §1, §2, §3, §4

## NCC(=O)Nc1ccc(-n2nc(C(F)(F)F)cc2-c2ccc3c(ccc4ccccc43)c2)cc1 [Compound 70, 2-Amino-N-{4-[5-(2-phenanthrenyl)-3-(trifluoromethyl)-1H-pyrazol-1-yl]-phenyl}-acetamide]
TK-10; TK-10
  GI50: 1480 nM
TK-10; TK-10, read-out: LC50
  CC50: 6470 nM
A498; A498
  GI50: 2300 nM
A498; A498, read-out: LC50
  CC50: 66900 nM
786-0; 786-0
  GI50: 1200 nM
786-0; 786-0, read-out: LC50
  CC50: 6790 nM
SN12C
  GI50: 1580 nM
CAKI-1
  GI50: 703 nM
ACHN
  GI50: 1420 nM
NCI-H460; Homo sapiens, NCI-H460
  GI50: 421 nM
NCI-H460; Homo sapiens, NCI-H460, read-out: LC50
  CC50: > 100000 nM
NCI-H460; NCI-H460, Log10 Concentration −5.0
  Percent Growth: −66%
NCI-H460; NCI-H460, Log10 Concentration −6.0
  Mean Optical Densities: 1.830
